Assay results published in PubChem BioAssay (NCI).
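Cells were grown in 96-well plates and exposed to each compound for 48 hours at five concentrations; endpoints were interpolated linearly between bracketing concentrations, or set to the highest concentration if not reached. GI50 is the concentration that inhibits growth by half. TGI: concentration producing complete growth inhibition.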

Key:
Experiment in all cases: NCI tumour cell line growth inhibition, 48 h
[1] = system: SK-MEL-5 melanoma
[2] = system: SK-MEL-28 melanoma
[3] = system: EKVX NSCLC
[4] = system: RXF 393 renal
[5] = system: NCI-H522 lung
[6] = system: OVCAR-8 ovarian
[7] = system: A549 NSCLC
[8] = system: SF-539 CNS
[9] = system: T-47D breast
[10] = system: SR leukemia

CC1=C(C(=O)Nc2cc(=O)n(C)c(=O)n2C)C(c2cccc([N+](=O)[O-])c2)C(C(=O)Nc2cc(=O)n(C)c(=O)n2C)=C(C)N1
TGI [1]: > 100 µM | TGI [2]: > 100 µM | TGI [3]: > 100 µM | TGI [4]: > 100 µM | TGI [5]: > 100 µM | TGI [6]: > 100 µM | TGI [7]: > 100 µM | TGI [8]: 61.7 µM

Cc1cc(O)cc2c1[C@]1(C)CCC3C(C)(C)CCC[C@]3(C)[C@H]1C2 (stereo partly drawn)
GI50 [1]: 19.1 µM | TGI [1]: 33.2 µM | GI50 [2]: 20.4 µM | TGI [2]: 36.7 µM | GI50 [3]: 19.9 µM | TGI [3]: 36.6 µM | GI50 [4]: 25 µM | TGI [4]: 50.4 µM | GI50 [9]: 16.7 µM | TGI [9]: 43.3 µM | GI50 [5]: 20.8 µM | TGI [5]: 38.9 µM | GI50 [6]: 26.1 µM | TGI [6]: 54.8 µM | GI50 [7]: 22.7 µM | TGI [7]: 42.1 µM | GI50 [8]: 20.6 µM | TGI [8]: 37.9 µM

CNC/C(Cl)=N/S(=O)(=O)c1ccc(C)cc1
TGI [1]: 36.7 µM | TGI [2]: > 100 µM | TGI [3]: 40.4 µM | TGI [4]: 9.34 µM | TGI [5]: 24.9 µM | TGI [6]: > 100 µM | TGI [7]: 51.4 µM | TGI [10]: 34.9 µM | TGI [8]: 39.7 µM

CC1(C)CC2=C(Sc3ccccc3N2)C(=O)C1C(=O)C(=O)Nc1cccc([N+](=O)[O-])c1 (stereo not drawn)
TGI [1]: > 100 µM | TGI [2]: > 100 µM | TGI [3]: > 100 µM | TGI [9]: > 100 µM | TGI [5]: > 100 µM | TGI [6]: > 100 µM | TGI [7]: > 100 µM | TGI [8]: > 100 µM

CCOC(=O)N1c2c(ccn2C)-c2ccn(C)c2N1C(=O)OCC
TGI [1]: > 100 µM | TGI [5]: 25 µM | TGI [6]: 27.9 µM | TGI [7]: 39.4 µM | TGI [10]: 43.8 µM | TGI [8]: 38.2 µM

O=C(O)NC(c1ccccc1)C(NC(=O)c1ccccc1)c1ccccc1 (stereo not drawn)
TGI [2]: > 100 µM | TGI [3]: > 100 µM | TGI [4]: > 100 µM | TGI [6]: > 100 µM | TGI [7]: > 100 µM | TGI [10]: > 100 µM | TGI [8]: > 100 µM

COc1cc(OC)c(SSCCCCS(=O)O)c(OC)c1
TGI [1]: 22.3 µM | TGI [2]: 29.7 µM | TGI [3]: 31.3 µM | TGI [4]: 27.6 µM | TGI [5]: 21.1 µM | TGI [6]: 34.1 µM | TGI [7]: 40.3 µM | TGI [8]: 29.5 µM

C/C=C1\C=C(OC)CN(CCc2c[nH]c3ccccc23)C1
TGI [1]: 53.3 µM | TGI [3]: > 100 µM | TGI [5]: > 100 µM | TGI [6]: > 100 µM | TGI [7]: > 100 µM | TGI [10]: > 100 µM | TGI [8]: > 100 µM

Cc1cccc(C)c1NC(=O)C(=O)CC(=O)/C=C/c1ccccc1
TGI [1]: > 100 µM | TGI [2]: > 100 µM | TGI [3]: > 100 µM | TGI [4]: > 100 µM | TGI [9]: > 100 µM | TGI [5]: > 100 µM | TGI [6]: > 100 µM | TGI [7]: > 100 µM | TGI [8]: > 100 µM

C=CC1CCC[N+]1(CC(=O)OCC)Cc1ccccc1 (stereo not drawn)
TGI [1]: > 100 µM | TGI [2]: > 100 µM | TGI [3]: > 100 µM | TGI [9]: > 100 µM | TGI [6]: > 100 µM | TGI [7]: > 100 µM | TGI [10]: > 100 µM

CC(=O)N1C/C(=C/c2ccc(Cl)cc2)C(=O)/C(=C/c2ccc(Cl)cc2)C1
GI50 [1]: 1.49 µM | TGI [1]: 2.9 µM | GI50 [2]: 1.54 µM | TGI [2]: 3.2 µM | GI50 [4]: 0.546 µM | TGI [4]: 1.61 µM | GI50 [9]: 1.31 µM | TGI [9]: 3.24 µM | GI50 [5]: 1.35 µM | TGI [5]: 2.83 µM | GI50 [6]: 0.463 µM | TGI [6]: 2.17 µM | GI50 [7]: 0.633 µM | TGI [7]: 4.5 µM | GI50 [8]: 0.785 µM | TGI [8]: 2.03 µM

CC(=O)OC1CCn2nnc(CO)c21 (stereo not drawn)
TGI [1]: > 100 µM | TGI [2]: > 100 µM | TGI [3]: > 100 µM | TGI [4]: > 100 µM | TGI [5]: > 100 µM | TGI [6]: > 100 µM | TGI [7]: > 100 µM | TGI [10]: > 100 µM | TGI [8]: > 100 µM

CC(=O)OC[C@]1(C)CCCC2(C)C1CCC1C=C(C)[C@H]3CCC12C3 (stereo partly drawn)
TGI [1]: > 100 µM | TGI [2]: > 100 µM | TGI [4]: > 100 µM | TGI [5]: 75 µM | TGI [6]: > 100 µM | TGI [7]: > 100 µM | TGI [10]: > 100 µM | TGI [8]: 66.8 µM

O=C1Cc2c([nH]c3ccccc23)-c2ccccc2N1
TGI [1]: > 100 µM | TGI [2]: > 100 µM | TGI [3]: > 100 µM | TGI [4]: 40.7 µM | TGI [5]: 62.6 µM | TGI [6]: > 100 µM | TGI [7]: > 100 µM | TGI [8]: 55.2 µM

CCN(CC)CCCNC(=O)C1COc2cc(-c3cc(=O)c4ccccc4o3)ccc2O1 (stereo not drawn)
TGI [1]: 37.6 µM | TGI [2]: 40.8 µM | TGI [3]: > 100 µM | TGI [4]: > 100 µM | TGI [5]: > 100 µM | TGI [6]: > 100 µM | TGI [7]: > 100 µM | TGI [10]: 47.9 µM | TGI [8]: 38.9 µM

Cc1nc(C(N)=S)sc1C(=O)CC(=O)C(=O)Nc1ccccc1[N+](=O)[O-]
TGI [1]: > 100 µM | TGI [2]: > 100 µM | TGI [3]: > 100 µM | TGI [4]: > 100 µM | TGI [5]: > 100 µM | TGI [6]: > 100 µM | TGI [7]: > 100 µM | TGI [10]: > 100 µM | TGI [8]: > 100 µM

CCOC(=O)/C(=C\c1ccc(N(CCC#N)CCC#N)cc1)NC(=O)c1cc([N+](=O)[O-])ccc1Cl
TGI [1]: > 100 µM | TGI [2]: > 100 µM | TGI [3]: > 100 µM | TGI [4]: > 100 µM | TGI [5]: > 100 µM | TGI [6]: > 100 µM | TGI [7]: > 100 µM | TGI [8]: > 100 µM

CN1CC(=O)N(C)c2ncn(Cc3ccccc3)c2C1=O
TGI [1]: > 100 µM | TGI [2]: > 100 µM | TGI [3]: > 100 µM | TGI [4]: > 100 µM | TGI [6]: > 100 µM | TGI [7]: > 100 µM | TGI [10]: > 100 µM | TGI [8]: > 100 µM

CNC(=S)NC(=O)c1c(Cl)n(C(=O)OC(C)(C)C)c2ccccc12
GI50 [1]: 28.1 µM | TGI [1]: > 100 µM | GI50 [2]: > 100 µM | TGI [2]: > 100 µM | GI50 [3]: 39.7 µM | TGI [3]: > 100 µM | GI50 [4]: 48.5 µM | TGI [4]: > 100 µM | GI50 [9]: 44.1 µM | TGI [9]: > 100 µM | GI50 [5]: 30.6 µM | TGI [5]: 90.9 µM | GI50 [6]: 89.1 µM | TGI [6]: > 100 µM | GI50 [7]: 84.3 µM | TGI [7]: > 100 µM | GI50 [8]: 35 µM | TGI [8]: > 100 µM

O=C1NC(=O)C(c2ccccc2Cl)=C1Nc1cc(Cl)c(O)c(Cl)c1
GI50 [1]: 11.7 µM | TGI [1]: > 25 µM | GI50 [2]: > 14.6 µM | TGI [2]: > 25 µM | GI50 [3]: > 25 µM | TGI [3]: > 25 µM | GI50 [4]: 5.98 µM | TGI [4]: > 23.5 µM | GI50 [9]: > 15.2 µM | TGI [9]: > 25 µM | GI50 [5]: 8.78 µM | TGI [5]: > 25 µM | GI50 [6]: 17.6 µM | TGI [6]: > 25 µM | GI50 [7]: > 25 µM | TGI [7]: > 25 µM | GI50 [8]: 13.9 µM | TGI [8]: > 25 µM
